Measured values reported in ChEMBL document CHEMBL1201862, “PubChem BioAssay data set” (2004).
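Step 1: Grow cells in 96-well plates. Step 2: Expose to compound for 48 hours at 5 concentrations. Step 3: Interpolate endpoints linearly; if unreached, use highest concentration. GI50 = concentration required for 50% inhibition of growth.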 Calls of active or inactive are those of the source. Cut-off read from the data, not from the text of the source: active = GI50 up to about 1.1 µM and inactive = higher.

Legend:
Test in all cases: NCI tumour cell line growth inhibition, 48 h
786-0 = tested on: 786-0
Hs-578T = tested on: Hs-578T
SR = tested on: SR
MDA-MB-231 = tested on: MDA-MB-231
LXFL 529 = tested on: LXFL 529
DMS-273 = tested on: DMS-273
XF498 = tested on: XF498
HOP-18 = tested on: HOP-18

Row | Structure (SMILES) | GI50 (786-0) | GI50 (Hs-578T) | GI50 (SR) | GI50 (MDA-MB-231) | GI50 (LXFL 529) | GI50 (DMS-273) | GI50 (XF498) | GI50 (HOP-18)
1 | O=S(=O)(O)c1ccc2cc(/N=N\c3cc(S(=O)(=O)O)c4cccnc4c3O)ccc2c1 | > 100 µM (inactive) | > 100 µM (inactive) | > 100 µM (inactive) | > 100 µM (inactive) | – | – | – | –
2 | COc1ccc(C(c2ccc(C(C)C)cc(=O)c2O)c2ccc3cccnc3c2O)cc1 (stereo not drawn) | 1.63 µM (inactive) | – | 1 µM (active) | – | 0.506 µM (active) | 0.31 µM (active) | 2.17 µM (inactive) | –
3 | CN(C)c1cccc(/C=C(\C#N)c2ccccc2)c1 | 2.21 µM (inactive) | 0.723 µM (active) | 0.0879 µM (active) | 1.11 µM (active) | – | – | – | –
4 | O=C(NCCCl)O/N=C/c1cccnc1 | – | – | – | – | – | > 100 µM (inactive) | > 100 µM (inactive) | > 100 µM (inactive)
5 | Cc1ccnn1CCc1ccc(Cl)cc1Cl | – | 22.9 µM (inactive) | 21.9 µM (inactive) | 29.3 µM (inactive) | – | – | – | –
6 | O=C1c2ccccc2C(O)(C(=O)O)C1(O)CC=C(Cl)Cl (stereo not drawn) | – | – | – | – | – | > 125 µM (inactive) | > 125 µM (inactive) | > 125 µM (inactive)
7 | CCCCCC(/C=C/c1ncccc1OCCCCCC(=O)O)=N\NC1=NCCN1 | – | – | 39.4 µM (inactive) | – | 47.2 µM (inactive) | 42.9 µM (inactive) | 27.3 µM (inactive) | –
8 | CN(C)N1C(=O)S/C(=C\c2ccc([N+](=O)[O-])cc2)C1=O | > 100 µM (inactive) | > 100 µM (inactive) | 57.4 µM (inactive) | > 100 µM (inactive) | – | – | – | –
9 | CCOP(=O)(OCC)C(Nc1ccc(C(=O)O)cc1)c1ccc(C(Nc2ccc(C(=O)O)cc2)P(=O)(OCC)OCC)cc1 (stereo not drawn) | > 100 µM (inactive) | > 100 µM (inactive) | – | > 100 µM (inactive) | – | – | – | –
10 | N#Cc1c(-c2ccc([N+](=O)[O-])cc2)c(C#N)c(=O)n(NS(=O)(=O)c2ccccc2)c1O | > 100 µM (inactive) | – | – | > 100 µM (inactive) | – | – | – | –
11 | Clc1ccccc1C(n1ncc2ccccc21)n1ncc2ccccc21 | 65.9 µM (inactive) | – | 27 µM (inactive) | – | 37 µM (inactive) | 45.2 µM (inactive) | 14.5 µM (inactive) | –
12 | COC(=O)C1Cc2c([nH]c3ccccc23)C=N1 (stereo not drawn) | > 100 µM (inactive) | – | > 100 µM (inactive) | – | > 100 µM (inactive) | > 100 µM (inactive) | – | > 100 µM (inactive)
13 | CCC(=O)OCN(C)c1nc(N(C)COC(=O)CC)nc(N(C)COC(=O)CC)n1 | – | > 100 µM (inactive) | 26.7 µM (inactive) | 57.4 µM (inactive) | – | – | – | –
14 | CCCNC(C#N)c1ccc(C(C#N)NCCC)cc1 (stereo not drawn) | > 100 µM (inactive) | > 100 µM (inactive) | – | > 100 µM (inactive) | – | – | – | –
15 | COc1cc(C2C3=C(N=C4SC(C(C)=O)=C(C)N42)c2ccccc2CC3)cc(OC)c1OC (stereo not drawn) | > 100 µM (inactive) | 50.4 µM (inactive) | – | 49.2 µM (inactive) | – | – | – | –
16 | CN(C)/N=N/c1ccc(NC=O)cc1 | > 100 µM (inactive) | – | 48.6 µM (inactive) | > 100 µM (inactive) | – | – | – | –
17 | O=C1Nc2ccccc2C(=O)/C1=C/NC(=S)NCCc1ccccc1 | > 100 µM (inactive) | – | – | > 100 µM (inactive) | – | – | – | –
18 | O=c1cc(N2CCCC2)[nH]c(=O)n1-c1ccccc1 | > 100 µM (inactive) | – | > 100 µM (inactive) | > 100 µM (inactive) | – | – | – | –
19 | CCC1(O)CC(O)c2c(O)c3c(c(O)c2C1C(=O)OC)C(=O)c1cccc(O)c1C3=O (stereo not drawn) | 2.75 µM (inactive) | 4.7 µM (inactive) | 1.12 µM (inactive) | 2.9 µM (inactive) | – | – | – | –
20 | COc1cc(OC2OC(CO)C(O)C(O)C2O)c2c(O)c3c(=O)cc(C)oc3cc2c1 (stereo not drawn) | – | > 100 µM (inactive) | – | – | – | – | – | –
21 | CC(=O)OCc1ccc(-c2nc(C#N)c(N)o2)o1 | > 10 µM (inactive) | > 10 µM (inactive) | > 10 µM (inactive) | > 10 µM (inactive) | – | – | – | –
22 | CNC(=S)N/N=C(\C)c1nc2cccnc2[nH]1 | 43.7 µM (inactive) | > 50 µM (inactive) | 28.4 µM (inactive) | 42.7 µM (inactive) | – | – | – | –
23 | Cc1cc(N(CCC#N)CCC#N)ccc1/C=C(\NC(=O)/C=C/c1ccccc1)C(=O)Nc1ccccc1Cl | > 100 µM (inactive) | – | – | – | > 100 µM (inactive) | > 100 µM (inactive) | – | –
24 | Oc1ccc(C(=C(Br)c2ccccc2)c2ccc(O)cc2)cc1 | 9.77 µM (inactive) | 4.83 µM (inactive) | – | 10.9 µM (inactive) | – | – | – | –
25 | O=C1C(N2CCNCC2)=C(Cl)C(=O)c2ncccc21 | > 10 µM (inactive) | > 10 µM (inactive) | > 10 µM (inactive) | > 10 µM (inactive) | – | – | – | –
26 | CN1C2CCC1/C(=C/c1cccc3c1OCO3)C(=O)/C2=C\c1cccc2c1OCO2 | – | – | > 100 µM (inactive) | – | > 100 µM (inactive) | 45 µM (inactive) | 25.3 µM (inactive) | –
27 | COC(=O)C1=C(C)N2CCOC2CC1c1ccccc1 (stereo not drawn) | – | – | 78.9 µM (inactive) | – | > 100 µM (inactive) | – | – | –
28 | Oc1cn(-c2ccc(Cl)cc2)nc1-c1nnc(-c2ccccc2)o1 | – | 0.484 µM (active) | – | 6.01 µM (inactive) | – | – | – | –
